biological target: GST-Xa-hAAK1 (Homo sapiens (Human), UniProt Q2M2I8); test: AAK1 Kinase Assay; assay type: biochemical; conditions: bacterially expressed GST-Xa-hAAK1 3.5 nM; ATP 22 μM; fluoresceinated peptide 1.5 μM; 3 hours at room temperature; Caliper LabChip 3000
Protocol: The assays were performed in U-bottom 384-well plates. […] The reactions were initiated by the combination of bacterially expressed, GST-Xa-hAAK1 with substrates and test compounds. The reactions were incubated at room temperature for 3 hours and terminated by adding 60 μl of 35 mM EDTA buffer to each sample. The reactions were analyzed on the Caliper LabChip 3000 (Caliper, Hopkinton, Mass.) by electrophoretic separation of the fluorescent substrate and phosphorylated product. […] Compounds were dissolved at 10 mM in dimethylsulfoxide (DMSO) and evaluated at eleven concentrations. IC50 values were derived by non-linear regression analysis.

Sequence of GST-Xa-hAAK1 (Q2M2I8 whole entry): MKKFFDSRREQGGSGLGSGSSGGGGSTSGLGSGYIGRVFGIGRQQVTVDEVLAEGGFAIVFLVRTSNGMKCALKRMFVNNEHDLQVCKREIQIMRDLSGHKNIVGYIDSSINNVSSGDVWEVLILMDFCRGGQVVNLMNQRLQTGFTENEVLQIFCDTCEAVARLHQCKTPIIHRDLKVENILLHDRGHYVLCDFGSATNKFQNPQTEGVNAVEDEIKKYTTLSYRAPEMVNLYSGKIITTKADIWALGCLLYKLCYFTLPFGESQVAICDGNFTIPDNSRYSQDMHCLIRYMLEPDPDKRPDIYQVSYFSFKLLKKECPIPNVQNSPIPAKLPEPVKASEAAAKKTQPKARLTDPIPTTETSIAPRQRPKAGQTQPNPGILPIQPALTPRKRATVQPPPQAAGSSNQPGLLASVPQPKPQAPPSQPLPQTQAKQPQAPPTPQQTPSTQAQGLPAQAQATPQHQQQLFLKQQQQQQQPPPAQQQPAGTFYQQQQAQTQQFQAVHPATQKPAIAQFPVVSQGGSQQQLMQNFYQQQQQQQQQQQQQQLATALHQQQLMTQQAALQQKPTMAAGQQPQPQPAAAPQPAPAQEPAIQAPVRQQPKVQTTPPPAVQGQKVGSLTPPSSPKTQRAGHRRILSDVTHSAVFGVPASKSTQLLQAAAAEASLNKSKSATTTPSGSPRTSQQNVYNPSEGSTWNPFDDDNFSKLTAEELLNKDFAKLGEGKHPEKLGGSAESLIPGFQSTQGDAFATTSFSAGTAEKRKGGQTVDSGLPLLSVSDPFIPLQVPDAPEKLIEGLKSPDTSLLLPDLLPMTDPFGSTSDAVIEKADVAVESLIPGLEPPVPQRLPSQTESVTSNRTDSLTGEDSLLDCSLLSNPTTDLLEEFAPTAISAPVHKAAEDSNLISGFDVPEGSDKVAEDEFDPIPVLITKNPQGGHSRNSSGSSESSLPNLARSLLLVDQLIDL

SMILES	IC50 [µM]
COc1cc(-c2ccc(OC[C@@](C)(N)CC(C)C)c(C#N)c2)ncn1 [Example 439, (S)-2-((2-amino-2,4-dimethylpentyl)oxy)-5-(6-methoxypyrimidin-4-yl)benzonitrile]	0.128
COc1cc(-c2ccc(OC[C@@](C)(N)CC(C)C)c(C(F)(F)F)c2)ncn1 [Example 440, (S)-1-(4-(6-methoxypyrimidin-4-yl)-2-(trifluoromethyl)phenoxy)-2,4-dimethylpentan-2-amine]	0.308
CC(C)C[C@](C)(N)COc1ccc(-c2cc(Cl)ncn2)cc1C#N [Example 441, (S)-2-((2-amino-2,4-dimethylpentyl)oxy)-5-(6-chloropyrimidin-4-yl)benzonitrile]	0.015
CC(C)C[C@](C)(N)COc1ccc(-c2cc(Cl)ncn2)cc1C(F)(F)F [Example 442, (S)-1-(4-(6-chloropyrimidin-4-yl)-2-(trifluoromethyl)phenoxy)-2,4-dimethylpentan-2-amine]	0.019
CCc1cc(-c2ccc(OC[C@@](C)(N)CC(C)C)c(C#N)c2)ncn1 [Example 443, (S)-2-((2-amino-2,4-dimethylpentyl)oxy)-5-(6-ethylpyrimidin-4-yl)benzonitrile]	0.046
CCc1cc(-c2ccc(OC[C@@](C)(N)CC(C)C)c(C(F)(F)F)c2)ncn1 [Example 444, (S)-1-(4-(6-ethylpyrimidin-4-yl)-2-(trifluoromethyl)phenoxy)-2,4-dimethylpentan-2-amine]	0.153
Cc1cc(-c2cnc(OC[C@@](C)(N)CC(C)C)c(Cl)c2)ncn1 [Example 445, (S)-1-((3-chloro-5-(6-methylpyrimidin-4-yl)pyridin-2-yl)oxy)-2,4-dimethylpentan-2-amine]	0.062
Cc1cc(-c2cnc(OC[C@@](C)(N)CC(C)C)c(C)c2)ncn1 [Example 446, (S)-2,4-dimethyl-1-((3-methyl-5-(6-methylpyrimidin-4-yl)pyridin-2-yl)oxy)pentan-2-amine]	0.317
CCc1cc(-c2cnc(OC[C@@](C)(N)CC(C)C)c(C)c2)ncn1 [Example 447, (S)-1-((5-(6-ethylpyrimidin-4-yl)-3-methylpyridin-2-yl)oxy)-2,4-dimethylpentan-2-amine]	0.304
Cc1cc(-c2cc(C)c(OC[C@@](C)(N)CC(C)C)cn2)ncn1 [Example 450, (S)-2,4-dimethyl-1-((4-methyl-6-(6-methylpyrimidin-4-yl)pyridin-3-yl)oxy)pentan-2-amine]	0.126
Cc1nccc(-c2ccc(OC[C@@](C)(N)CC(C)C)c(F)c2)n1 [Example 462, (S)-1-(2-fluoro-4-(2-methylpyrimidin-4-yl)phenoxy)-2,4-dimethylpentan-2-amine]	0.021
Cc1cc(-c2ccc(OC[C@@](C)(N)CC(C)C)c(C(F)(F)F)c2)nc(C)n1 [Example 479, (S)-1-(4-(2,6-dimethylpyrimidin-4-yl)-2-(trifluoromethyl)phenoxy)-2,4-dimethylpentan-2-amine]	0.533
CC(C)C[C@](C)(N)COc1ccc(-c2ccnc(C(C)C)n2)cc1Cl [Example 480, (S)-1-(2-chloro-4-(2-isopropylpyrimidin-4-yl)phenoxy)-2,4-dimethylpentan-2-amine]	0.018
Cc1nccc(-c2cc(C#N)c(OC[C@@](C)(N)CC(C)C)cn2)n1 [Example 487, (S)-5-(2-amino-2,4-dimethylpentyloxy)-2-(2-methylpyrimidin-4-yl)isonicotinonitrile]	1.29
Cc1nccc(-c2ccc(OCC(N)(CC(C)C)C(F)(F)F)c(C)n2)n1 (stereo not drawn) [Example 491, 1,1,1-trifluoro-4-methyl-2-(((2-methyl-6-(2-methylpyrimidin-4-yl)pyridin-3-yl)oxy)methyl)pentan-2-amine]	0.789
COC(=O)Nc1nccc(-c2ccc(OC[C@@](C)(N)CC(C)C)cc2)n1 [Example 505, (S)-methyl (4-(4-((2-amino-2,4-dimethylpentyl)oxy)phenyl)pyrimidin-2-yl)carbamate]	0.0087
Cc1nccc(-c2cc(F)c(OC[C@@](C)(N)CC(C)C)cc2F)n1 [Example 506, (S)-1-(2,5-difluoro-4-(2-methylpyrimidin-4-yl)phenoxy)-2,4-dimethylpentan-2-amine]	0.134
COC(=O)Nc1nccc(-c2cc(F)c(OC[C@@](C)(N)CC(C)C)cc2F)n1 [Example 508, (S)-methyl (4-(4-((2-amino-2,4-dimethylpentyl)oxy)-2,5-difluorophenyl)pyrimidin-2-yl)carbamate]	0.025
CC(C)C[C@](C)(N)COc1cc(F)c(-c2ccnc(C(F)F)c2)cc1F [Example 510, (S)-1-(4-(2-(difluoromethyl)pyridin-4-yl)-2,5-difluorophenoxy)-2,4-dimethylpentan-2-amine]	0.019

The next compounds have a lower IC50 than those just listed; values first:

IC50 [µM]	SMILES
0.0066	CC(C)C[C@](C)(N)COc1ccc(-c2ccnc(C(F)(F)F)n2)cc1C#N [Example 474, (S)-2-(2-amino-2,4-dimethylpentyloxy)-5-(2-(trifluoromethyl)pyrimidin-4-yl)benzonitrile]
0.0065	COC(=O)Nc1cc(-c2cnc(OC[C@@](C)(N)CC(C)C)c(C)c2)ncn1 [Example 438, (S)-methyl (6-(6-((2-amino-2,4-dimethylpentyl)oxy)-5-methylpyridin-3-yl)pyrimidin-4-yl)carbamate]
0.0051	Cc1nccc(-c2ccc(OC[C@@](C)(N)CC(C)C)c(F)c2F)n1 [Example 511, (S)-1-(2,3-difluoro-4-(2-methylpyrimidin-4-yl)phenoxy)-2,4-dimethylpentan-2-amine]
0.005	COC(=O)Nc1cc(-c2cc(F)c(OC[C@@](C)(N)CC(C)C)cc2F)ncn1 [Example 507, (S)-methyl (6-(4-((2-amino-2,4-dimethylpentyl)oxy)-2,5-difluorophenyl)pyrimidin-4-yl)carbamate]
0.0036	CC(C)C[C@](C)(N)COc1ccc(-c2ccnc(C(F)(F)F)n2)cc1Cl [Example 465, (S)-1-(2-chloro-4-(2-(trifluoromethyl)pyrimidin-4-yl)phenoxy)-2,4-dimethylpentan-2-amine]
0.0032	Cc1nccc(-c2ccc(OC[C@@](C)(N)CC(C)C)c(C)n2)n1 [Example 484, (S)-2,4-dimethyl-1-(2-methyl-6-(2-methylpyrimidin-4-yl)pyridin-3-yloxy)pentan-2-amine]
0.0027	Cc1nc(-c2ccnc(Cl)n2)ccc1OC[C@@](C)(N)CC(C)C [Example 451, (S)-1-((6-(2-chloropyrimidin-4-yl)-2-methylpyridin-3-yl)oxy)-2,4-dimethylpentan-2-amine]
0.0024	Cc1nccc(-c2ccc(OC[C@@](C)(N)CC(C)C)c(C(F)(F)F)n2)n1 [Example 454, (S)-2,4-dimethyl-1-((6-(2-methylpyrimidin-4-yl)-2-(trifluoromethyl)pyridin-3-yl)oxy)pentan-2-amine]
0.0022	COC(=O)Nc1cc(-c2cnc(OC[C@@](C)(N)CC(C)C)c(Cl)c2)ncn1 [Example 437, (S)-methyl (6-(6-((2-amino-2,4-dimethylpentyl)oxy)-5-chloropyridin-3-yl)pyrimidin-4-yl)carbamate]
0.0015	Cc1nccc(-c2ccc(OC[C@@](C)(N)CC(C)C)c(C#N)c2)n1 [Example 458, (S)-2-(2-amino-2,4-dimethylpentyloxy)-5-(2-methylpyrimidin-4-yl) benzonitrile]
0.0015	Cc1nccc(-c2ccc(OC[C@@](C)(N)CC(C)C)c(Cl)c2)n1 [Example 469, (S)-1-(2-chloro-4-(2-methylpyrimidin-4-yl)phenoxy)-2,4-dimethylpentan-2-amine]
